Legend:
Format in all cases: in vivo
Abutilon theophrasti [1] = test: Post-emergence herbicidal action; conditions: rated visually after about 3 weeks vs untreated controls
Procedure, shortened: (§1)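 Greenhouse-grown plants in sandy loam treated at one-leaf stage, 2–3 weeks after sowing, with WP or EC formulations sprayed as aqueous suspension/emulsion plus 0.5% additive at 600 l/ha water; rates 20 g/ha and less. Visual rating after about 3 weeks versus untreated controls (100% = plants dead, 0% = like control).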

Pharbitis purpurea [2] = test: Post-emergence herbicidal action; conditions: rated visually after about 3 weeks vs untreated controls
Procedure, shortened: as §1

Veronica persica [3] = test: Post-emergence herbicidal action
Procedure, shortened: as §1

Amaranthus retroflexus [4] = test: Post-emergence herbicidal action; conditions: rated visually after about 3 weeks vs untreated controls
Procedure, shortened: as §1

Echinochloa crus-galli [5] = test: Post-emergence herbicidal action; conditions: rated visually after about 3 weeks vs untreated controls
Procedure, shortened: as §1

Polygonum convolvulus [6] = test: Pre-emergence herbicidal action; conditions: application rate 20 g/ha
Text: (§2) B. Pre-Emergence Herbicidal Action and Crop Plant Compatibility Seeds of monocotyledonous and dicotyledonous weed plants and crop plants were placed in plastic or organic planting pots and covered with soil. The compounds of the invention, formulated in the form of wettable powders (WP) or as emulsion concentrates (EC), were then applied to the surface of the covering soil as aqueous suspension or emulsion with addition of 0.5% additive at a water application rate equivalent to 600 l/ha (converted). After the treatment, the pots were placed in a greenhouse and kept under good growth conditions for the test plants. After about 3 weeks, the effect of the preparations was scored visually in comparison with untreated controls as percentages. For example, 100% activity=the plants have died, 0% activity=like control plants. Tables B1 to B13 below show the effects of selected compounds of the general formula (I) according to Tables I.1 to I.36 on various harmful plants and at an application rate corresponding to 80 g/ha or less, which were obtained by the experimental procedure mentioned above.

Alopecurus myosuroides [7] = test: Pre-emergence herbicidal action; conditions: application rate 80 g/ha
Text: as §2

Abutilon theophrasti [8] = test: Pre-emergence herbicidal action; conditions: application rate 20 g/ha
Text: as §2

Viola tricolor [9] = test: Pre-emergence herbicidal action; conditions: application rate 20 g/ha
Text: as §2

Matricaria inodora [10] = test: Pre-emergence herbicidal action; conditions: application rate 20 g/ha
Text: as §2

Setaria viridis [11] = test: Pre-emergence herbicidal action; conditions: application rate 20 g/ha
Text: as §2

Pharbitis purpurea [12] = test: Pre-emergence herbicidal action; conditions: application rate 20 g/ha
Text: as §2

Veronica persica [13] = test: Pre-emergence herbicidal action; conditions: application rate 20 g/ha
Text: as §2

Avena fatua [14] = test: Pre-emergence herbicidal action; conditions: application rate 80 g/ha
Text: as §2

Amaranthus retroflexus [15] = test: Pre-emergence herbicidal action; conditions: application rate 20 g/ha
Text: as §2

Lolium rigidum [16] = test: Pre-emergence herbicidal action; conditions: application rate 80 g/ha
Text: as §2

Echinochloa crus-galli [17] = test: Pre-emergence herbicidal action
Text: as §2

Digitaria sanguinalis [18] = test: Pre-emergence herbicidal action; conditions: application rate 20 g/ha
Text: as §2

Oryza sativa = test: Post-emergence crop plant compatibility
Procedure, shortened: (§3)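 Greenhouse crop plants in sandy loam sprayed at one-leaf stage (2-3 weeks after sowing) with WP or EC formulations plus 0.5% additive, 600 l/ha water, at 5 g/ha or 20 g/ha. Damage scored visually after about 3 weeks as % versus untreated controls (100% = plants dead).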

Zea mays [19] = test: Pre-emergence crop plant compatibility; conditions: application rate 20 g/ha
Text: B. Pre-Emergence Herbicidal Action and Crop Plant Compatibility
as §2, with “Seeds” for “B. Pre-Emergence Herbicidal Action and Crop Plant Compatibility Seeds”, “plants.” for “plants. Tables B1 to B13 below show the effects of selected compounds of the general formula (I) according to Tables I.1 to I.36 on various harmful plants and at an application rate corresponding to 80 g/ha or less, which were obtained by the experimental procedure mentioned above.”
Tables B14 to B16 below show the crop plant compatibilities of selected compounds of the general formula (I) according to Tables I.1 to I.36 at an application rate corresponding to 20 g/ha, which were obtained in experiments according to the experimental procedure mentioned above. Here, the observed effects on selected crop plants are stated in comparison to the untreated controls (values in %).

Polygonum convolvulus [20] = test: Post-emergence herbicidal action
Procedure, shortened: as §1

Alopecurus myosuroides [21] = test: Post-emergence herbicidal action; conditions: application rate 20 g/ha, rated visually after about 3 weeks vs untreated controls
Procedure, shortened: as §1

Viola tricolor [22] = test: Post-emergence herbicidal action
Procedure, shortened: as §1

Matricaria inodora [23] = test: Post-emergence herbicidal action; conditions: rated visually after about 3 weeks vs untreated controls
Procedure, shortened: as §1

Setaria viridis [24] = test: Post-emergence herbicidal action; conditions: rated visually after about 3 weeks vs untreated controls
Procedure, shortened: as §1

Avena fatua [25] = test: Post-emergence herbicidal action; conditions: application rate 20 g/ha, rated visually after about 3 weeks vs untreated controls
Procedure, shortened: as §1

Digitaria sanguinalis [26] = test: Post-emergence herbicidal action; conditions: rated visually after about 3 weeks vs untreated controls
Procedure, shortened: as §1

Zea mays [27] = test: Post-emergence crop plant compatibility
Procedure, shortened: as §3

Triticum aestivum = test: Post-emergence crop plant compatibility
Procedure, shortened: as §3

Lolium rigidum [28] = test: Post-emergence herbicidal action; conditions: application rate 20 g/ha, rated visually after about 3 weeks vs untreated controls
Procedure, shortened: as §1

Stellaria media = test: Post-emergence herbicidal action; conditions: application rate 5 g/ha, rated visually after about 3 weeks vs untreated controls
Procedure, shortened: as §1

Hordeum murinum = test: Post-emergence herbicidal action; conditions: application rate 20 g/ha
Procedure, shortened: as §1

Oryza sativa (efficacy in %) (Oryza sativa; application rate 5 g/ha) [%] | Compound | Abutilon theophrasti (efficacy in %) (Abutilon theophrasti [1]; application rate 5 g/ha) [%] | Pharbitis purpurea (efficacy in %) (Pharbitis purpurea [2]; application rate 5 g/ha) [%] | Veronica persica (efficacy in %) (Veronica persica [3]; application rate 5 g/ha) [%] | Amaranthus retroflexus (efficacy in %) (Amaranthus retroflexus [4]; application rate 5 g/ha) [%] | Echinochloa crus-galli (efficacy in %) (Echinochloa crus-galli [5]; application rate 5 g/ha) [%] | Polygonum convolvulus (efficacy in %) (Polygonum convolvulus [6]) [%] | Alopecurus myosuroides (efficacy in %) (Alopecurus myosuroides [7]) [%] | Abutilon theophrasti (efficacy in %) (Abutilon theophrasti [8]) [%] | Viola tricolor (efficacy in %) (Viola tricolor [9]) [%] | Matricaria inodora (efficacy in %) (Matricaria inodora [10]) [%] | Setaria viridis (efficacy in %) (Setaria viridis [11]) [%] | Pharbitis purpurea (efficacy in %) (Pharbitis purpurea [12]) [%] | Veronica persica (efficacy in %) (Veronica persica [13]) [%] | Avena fatua (efficacy in %) (Avena fatua [14]) [%] | Amaranthus retroflexus (efficacy in %) (Amaranthus retroflexus [15]) [%] | Lolium rigidum (efficacy in %) (Lolium rigidum [16]) [%] | Digitaria sanguinalis (efficacy in %) (Digitaria sanguinalis [18]) [%] | Matricaria inodora (efficacy in %) (Matricaria inodora [23]; application rate 20 g/ha) [%] | Veronica persica (efficacy in %) (Veronica persica [3]; application rate 20 g/ha) [%] | further results
20 | Cn1c(C(F)(F)F)cc(=O)n(-c2cc(Oc3cccnc3OCC(=O)OCc3cccnn3)c(Cl)cc2F)c1=O [I.15-301] | 100 | 100 | 100 | 100 | 100 | 100 | 100 | 100 | 100 | 100 | 100 | 100 | 80 | 100 | 100 | 100 | 100 | – | – | Echinochloa crus-galli (efficacy in %) (Echinochloa crus-galli [17]; application rate 20 g/ha): 80%; Zea mays (efficacy in %) (Zea mays [19]): 0%
– | Cn1c(C(F)(F)F)cc(=O)n(-c2cc(Oc3cccnc3OCC(=O)OC3COC3)c([N+](=O)[O-])cc2F)c1=O [I.14-115] | – | – | – | – | – | – | – | – | – | – | – | – | – | – | – | – | – | 100 | 100 | Polygonum convolvulus (efficacy in %) (Polygonum convolvulus [20]; application rate 20 g/ha): 100%; Alopecurus myosuroides (efficacy in %) (Alopecurus myosuroides [21]): 100%; Viola tricolor (efficacy in %) (Viola tricolor [22]; application rate 20 g/ha): 100%; Setaria viridis (efficacy in %) (Setaria viridis [24]; application rate 20 g/ha): 100%; Pharbitis purpurea (efficacy in %) (Pharbitis purpurea [2]; application rate 20 g/ha): 100%; Avena fatua (efficacy in %) (Avena fatua [25]): 80%; Amaranthus retroflexus (efficacy in %) (Amaranthus retroflexus [4]; application rate 20 g/ha): 100%; Echinochloa crus-galli (efficacy in %) (Echinochloa crus-galli [5]; application rate 20 g/ha): 100%; Digitaria sanguinalis (efficacy in %) (Digitaria sanguinalis [26]; application rate 20 g/ha): 100%; Oryza sativa (efficacy in %) (Oryza sativa; application rate 20 g/ha): 20%; Zea mays (efficacy in %) (Zea mays [27]; application rate 5 g/ha): 20%
20 | Cn1c(C(F)(F)F)cc(=O)n(-c2cc(Oc3cccnc3OCC(=O)OCc3ccc(C(F)(F)F)nc3)c(Cl)cc2F)c1=O [I.15-350, [6-(Trifluoromethyl)pyridin-3-yl]methyl [(3-{2-chloro-4-fluoro-5-[3-methyl-2,6-dioxo-4-(trifluoromethyl)-3,6-dihydropyrimidin-1(2H)-yl]phenoxy}pyridin-2-yl)oxy]acetate] | 100 | 100 | 100 | 100 | 100 | 100 | 100 | 100 | 100 | 100 | 100 | 100 | 100 | 100 | 100 | 100 | 100 | – | – | Matricaria inodora (efficacy in %) (Matricaria inodora [23]; application rate 5 g/ha): 80%; Echinochloa crus-galli (efficacy in %) (Echinochloa crus-galli [17]; application rate 80 g/ha): 100%; Triticum aestivum (efficacy in %) (Triticum aestivum; application rate 5 g/ha): 20%; Zea mays (efficacy in %) (Zea mays [19]): 0%
20 | Cn1c(C(F)(F)F)cc(=O)n(-c2cc(Oc3cccnc3OCC(=O)OCc3ccccn3)c(Cl)cc2F)c1=O [I.15-286] | 100 | 100 | 100 | 100 | 100 | 100 | 100 | 100 | 100 | 100 | 100 | 100 | 100 | 100 | 100 | 100 | 100 | – | – | Matricaria inodora (efficacy in %) (Matricaria inodora [23]; application rate 5 g/ha): 90%; Digitaria sanguinalis (efficacy in %) (Digitaria sanguinalis [26]; application rate 5 g/ha): 100%; Echinochloa crus-galli (efficacy in %) (Echinochloa crus-galli [17]; application rate 20 g/ha): 80%; Zea mays (efficacy in %) (Zea mays [19]): 20%
– | CCOCCOC(=O)COc1ncccc1Oc1cc(-n2c(=O)cc(C(F)(F)F)n(C)c2=O)c(F)cc1[N+](=O)[O-] [I.14-2] | – | – | – | – | – | – | – | – | – | – | – | – | – | – | – | – | – | 100 | 100 | Alopecurus myosuroides (efficacy in %) (Alopecurus myosuroides [21]): 100%; Abutilon theophrasti (efficacy in %) (Abutilon theophrasti [1]; application rate 20 g/ha): 100%; Viola tricolor (efficacy in %) (Viola tricolor [22]; application rate 20 g/ha): 100%; Setaria viridis (efficacy in %) (Setaria viridis [24]; application rate 20 g/ha): 100%; Pharbitis purpurea (efficacy in %) (Pharbitis purpurea [2]; application rate 20 g/ha): 100%; Avena fatua (efficacy in %) (Avena fatua [25]): 100%; Amaranthus retroflexus (efficacy in %) (Amaranthus retroflexus [4]; application rate 20 g/ha): 100%; Lolium rigidum (efficacy in %) (Lolium rigidum [28]): 90%; Echinochloa crus-galli (efficacy in %) (Echinochloa crus-galli [5]; application rate 20 g/ha): 100%; Digitaria sanguinalis (efficacy in %) (Digitaria sanguinalis [26]; application rate 20 g/ha): 100%; Oryza sativa (efficacy in %) (Oryza sativa; application rate 20 g/ha): 10%; Zea mays (efficacy in %) (Zea mays [27]; application rate 5 g/ha): 20%
20 | Cn1c(C(F)(F)F)cc(=O)n(-c2cc(Sc3cccnc3SCC(=O)OCC3CCOC3)c(Cl)cc2F)c1=O (centres unmarked) [I.10-72] | 100 | 100 | – | 100 | 100 | – | – | – | – | – | – | – | – | – | – | – | – | 100 | 80 | Polygonum convolvulus (efficacy in %) (Polygonum convolvulus [20]; application rate 5 g/ha): 100%; Alopecurus myosuroides (efficacy in %) (Alopecurus myosuroides [21]): 80%; Viola tricolor (efficacy in %) (Viola tricolor [22]; application rate 5 g/ha): 100%; Setaria viridis (efficacy in %) (Setaria viridis [24]; application rate 5 g/ha): 90%; Stellaria media (efficacy in %) (Stellaria media): 90%; Lolium rigidum (efficacy in %) (Lolium rigidum [28]): 80%; Hordeum murinum (efficacy in %) (Hordeum murinum): 80%; Digitaria sanguinalis (efficacy in %) (Digitaria sanguinalis [26]; application rate 5 g/ha): 80%; Triticum aestivum (efficacy in %) (Triticum aestivum; application rate 20 g/ha): 20%
– | COCCOCCOC(=O)COc1ncccc1Oc1cc(-n2c(=O)cc(C(F)(F)F)n(C)c2=O)c(F)cc1[N+](=O)[O-] [I.14-23] | – | – | – | – | – | – | – | – | – | – | – | – | – | – | – | – | – | 100 | 100 | Polygonum convolvulus (efficacy in %) (Polygonum convolvulus [20]; application rate 20 g/ha): 100%; Abutilon theophrasti (efficacy in %) (Abutilon theophrasti [1]; application rate 20 g/ha): 100%; Viola tricolor (efficacy in %) (Viola tricolor [22]; application rate 20 g/ha): 100%; Setaria viridis (efficacy in %) (Setaria viridis [24]; application rate 20 g/ha): 100%; Pharbitis purpurea (efficacy in %) (Pharbitis purpurea [2]; application rate 20 g/ha): 100%; Amaranthus retroflexus (efficacy in %) (Amaranthus retroflexus [4]; application rate 20 g/ha): 100%; Echinochloa crus-galli (efficacy in %) (Echinochloa crus-galli [5]; application rate 20 g/ha): 100%; Digitaria sanguinalis (efficacy in %) (Digitaria sanguinalis [26]; application rate 20 g/ha): 100%; Oryza sativa (efficacy in %) (Oryza sativa; application rate 20 g/ha): 10%; Zea mays (efficacy in %) (Zea mays [27]; application rate 20 g/ha): 10%
